ChEMBL document CHEMBL6114950, “Diamino variants of piperazine-based tissue transglutaminase inhibitors” (Bioorg Med Chem Lett, 2025)
Calls of active or inactive are those of the source. The calls are words filed in the database; no cut-off is given here.

How the values were obtained:
[1] = target: T1, Protein-glutamine gamma-glutamyltransferase (Homo sapiens) (UniProt P21980); assay: Irreversible inhibition of recombinant human TG2 assessed as inhibition constant using Cbz-Glu(gamma-p-nitrophenyl ester)Gly as a substrate at upto 100 uM by continuous colorimetric assay
T1 sequence (whole entry): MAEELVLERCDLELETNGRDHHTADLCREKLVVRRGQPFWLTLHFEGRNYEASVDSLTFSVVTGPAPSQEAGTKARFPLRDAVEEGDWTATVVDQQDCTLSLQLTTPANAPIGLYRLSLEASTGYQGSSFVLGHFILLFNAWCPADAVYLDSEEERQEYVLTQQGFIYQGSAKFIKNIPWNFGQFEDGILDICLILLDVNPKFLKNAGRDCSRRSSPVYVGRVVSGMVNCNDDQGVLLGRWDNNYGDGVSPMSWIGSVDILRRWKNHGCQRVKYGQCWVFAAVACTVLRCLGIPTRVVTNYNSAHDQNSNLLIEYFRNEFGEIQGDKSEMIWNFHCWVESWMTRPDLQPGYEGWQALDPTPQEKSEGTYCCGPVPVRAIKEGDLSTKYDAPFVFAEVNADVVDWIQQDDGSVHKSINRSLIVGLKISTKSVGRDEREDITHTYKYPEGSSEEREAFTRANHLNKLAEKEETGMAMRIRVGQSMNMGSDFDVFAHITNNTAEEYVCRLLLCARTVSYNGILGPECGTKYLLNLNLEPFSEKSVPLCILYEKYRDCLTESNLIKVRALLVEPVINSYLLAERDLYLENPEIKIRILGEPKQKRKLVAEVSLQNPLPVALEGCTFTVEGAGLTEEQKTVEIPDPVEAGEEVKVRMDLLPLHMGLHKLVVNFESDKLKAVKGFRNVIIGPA

[2] = target: T1, Protein-glutamine gamma-glutamyltransferase (Homo sapiens); assay: Irreversible inhibition of recombinant human TG2 assessed as Kinact/Ki using Cbz-Glu(gamma-p-nitrophenyl ester)Gly as a substrate at upto 100 uM by continuous colorimetric assay
[3] = target: T1, Protein-glutamine gamma-glutamyltransferase (Homo sapiens); assay: Irreversible inhibition of recombinant human TG2 assessed as inactivation constant using Cbz-Glu(gamma-p-nitrophenyl ester)Gly as a substrate at upto 100 uM by continuous colorimetric assay
[4] = Apparent permeability across apical to basolateral side in […] cells; type: ADME, cell-based, Canis lupus familiaris; conditions: dog, MDCK-MDR1
[5] = target: T2, Protein-glutamine gamma-glutamyltransferase (Homo sapiens, UniProt P21980); assay: Irreversible inhibition of recombinant human TG2 assessed as inhibition constant using Cbz-Glu(gamma-p-nitrophenyl ester)Gly as a substrate by continuous colorimetric assay
T2 sequence (P21980 whole entry): T1 sequence (whole entry)

[6] = target: T1, Protein-glutamine gamma-glutamyltransferase (Homo sapiens)
Description: Irreversible inhibition of recombinant human TG2 assessed as inactivation constant using Cbz-Glu(gamma-p-nitrophenyl ester)Gly as a substrate by continuous colorimetric assay

[7] = Efflux ratio of apparent permeability in MDCK-MDR1 cells; type: ADME, cell-based, Canis lupus familiaris; conditions: dog
[8] = Apparent permeability across basolateral to apical side in […] cells; type: ADME, cell-based, Canis lupus familiaris; conditions: dog, MDCK-MDR1

| SMILES | inhibition constant (Ki) [1] | kinact/Ki [2] | inactivation constant (kinact) [3] | Papp A→B [4] [×10⁻⁶ cm/s] | Ki [5] [µM] | Kinact [6] [min⁻¹] | efflux ratio [7] | Papp B→A [8] [×10⁻⁶ cm/s] |
| --- | --- | --- | --- | --- | --- | --- | --- | --- |
| C=CC(=O)NCC(=O)N1CCC2(CC1)CCN(C(=O)C13CC4CC(CC(C4)C1)C3)CC2 | inactive | inactive | inactive |  |  |  |  |  |
| C=CC(=O)NCC(=O)N1CCN(C(=O)C23CC4CC(CC(C4)C2)C3)CC1 |  |  |  | 27.2 | 2.82 | 1.5 | 1.27 | 34.3 |
| C=CC(=O)NCC(=O)N1CCC2(CC1)CCN(C(=O)C13CC4CC(CC(C4)C1)C3)C2 |  |  |  |  | 112 | 0.72 |  |  |
| C=CC(=O)N(C)CC(=O)N1CCN(C(=O)C23CC4CC(CC(C4)C2)C3)CC1 |  |  |  | 19.7 |  |  |  | 39 |
| C=CC(=O)NCC(=O)NC1CN(C(=O)C23CC4CC(CC(C4)C2)C3)C1 | inactive | inactive | inactive |  |  |  |  |  |
| C=CC(=O)NCC(=O)N1CCC[C@@H](NC(=O)C23CC4CC(CC(C4)C2)C3)C1 |  |  |  |  | 115 | 0.67 |  |  |
| C=CC(=O)NCC(=O)N1CC2(CCN(C(=O)C34CC5CC(CC(C5)C3)C4)CC2)C1 | inactive | inactive | inactive |  |  |  |  |  |
| C=CC(=O)NCC(=O)NC1CCC(NC(=O)C23CC4CC(CC(C4)C2)C3)CC1 (configuration not stated) | inactive | inactive | inactive |  |  |  |  |  |

Second part, the molecule after the results:

| inhibition constant (Ki) [1] | kinact/Ki [2] | inactivation constant (kinact) [3] | Papp A→B [4] [×10⁻⁶ cm/s] | Ki [5] [µM] | Kinact [6] [min⁻¹] | efflux ratio [7] | Papp B→A [8] [×10⁻⁶ cm/s] | SMILES |
| --- | --- | --- | --- | --- | --- | --- | --- | --- |
| inactive | inactive | inactive |  |  |  |  |  | C=CC(=O)NCC(=O)NCCCNC(=O)C12CC3CC(CC(C3)C1)C2 |
| inactive | inactive | inactive |  |  |  |  |  | C=CC(=O)NCC(=O)NCCNC(=O)C12CC3CC(CC(C3)C1)C2 |
| inactive | inactive | inactive |  |  |  |  |  | C=CC(=O)NCC(=O)NCCCCCNC(=O)C12CC3CC(CC(C3)C1)C2 |
